Assay results taken from patent US20110014164A1, “EFFICIENT INDUCTION OF PLURIPOTENT STEM CELLS USING SMALL MOLECULE COMPOUNDS” (PRESIDENT AND FELLOWS OF HARVARD COLLEGE, priority 2008, published 2011).

Columns and labels:
[1] = test system: MEFs infected with the four factors (Oct4, Sox2, Klf4 and c-Myc); test: GFP positive iPS colony number in 4-factor infected MEFs; format: cell-based, mouse
Experimental: FIG. 1(c) Representative pictures at 11 days post-infection showing a significant increase of GFP positive iPS colonies in infected MEFs with VPA treatment compared to non-treated control.
Consistent with the FACS data, GFP positive iPS colonies emerge sooner and in greater numbers with VPA treatment. […] GFP positive colonies only start to emerge after 10 days post-infection in untreated cells.
For the generation of mouse iPS cells, infected MEFs were cultured in mouse ES cell media until iPS colonies were ready to be picked. In some experiments, knockout serum replacement was used instead of the Hyclone FBS in the mouse ES cell media, which appeared to accelerate the reprogramming process, consistent with a recent report^26. Chemical treatment started 1 or 2 days post-infection and lasted for a week in general. iPS colonies were picked between 9-21 days post-infection based on GFP expression and colony morphology. The picked colonies were then expanded and maintained on irradiated MEF feeder layers in mouse ES cell media.

uninfected MEFs [2] = test: Microarray analysis on uninfected MEFs treated with VPA; format: cell-based, mouse
Description: (a) Genes that were specifically expressed in ES cells and MEFs (>10 fold difference) were selected, and scatter plot was generated to visualize the effect of VPA treatment on the expression of these genes. Each blue dots represent one gene, and the position of the blue dot indicate the relative expression level, the average signal (AVE_signal), in MEFs treated with VPA versus untreated. The thick red line indicates identical expression levels. The two adjacent red lines indicate positions where VPA treatment causes a two fold up or down-regulation of the gene expression.
(b) Examples of the relative levels of expression of ES cell-specific transcripts (Rex3 and Zfp7) in ES cells, iPS-m cells, untreated MEFs and MEFs treated with VPA.
(c) Examples of the relative levels of expression of MEF-specific transcripts (Aspn and Meox2) in ES cells, iPS-m cells, untreated MEFs and MEFs treated with VPA.
(§1) Therefore, VPA partially reprograms MEFs towards more ES cell-like.
For transcriptional analysis, total RNA was isolated from cells cultured in 6 well dishes using RNeasy Mini Kit and QlAshredder from Qiagen. Biotinylated antisense RNA were amplified using Illumina Total Prep RNA amplification Kit from Ambion, hybridized to Illumina Whole-Genome Expression BeadChips (MouseRef-8) and analyzed by Illumina Beadstation 500. All samples were prepared in two to three biological repeats. Data were analyzed using the Beadstudio software provided by Illumina.

[3] = Effect of VPA treatment on cell cycles; format: cell-based
Description: as §1

[4] = test system: MEFs infected with the four factors (Oct4, Sox2, Klf4 and c-Myc); test: cells; format: cell-based, mouse; conditions: Mus musculus; 4-factor infected MEFs; dose response; read-out: EC50 of reprogramming efficiency (percentage of Oct4-GFP positive cells induced)
uninfected MEFs [5] = test: Oct4-GFP induction in uninfected MEFs; format: cell-based, mouse; conditions: VPA treatment alone on uninfected MEFs
Description: as §1

[6] = test system: human BJ and NHDF cells infected by Oct4 and Sox2; test: iPS induction in 2-factor (Oct4, Sox2) infected human fibroblasts; format: cell-based; conditions: both with VPA treatment
Description: b. In the published reprogramming protocol, infected human fibroblasts are typically cultured in fibroblast media first, then reseeded on feeders and switched to hES cell media about a week post-infection. In the modified protocol, human fibroblasts were replated immediately after infection, treated with VPA in hES media, and subsequently cultured in hES media.
c. The efficiency of iPS colony induction by 3 factors (Oct4, Sox2 and Klf4) and 2 factors (Oct4 and Sox2) with VPA treatment are plotted. Each dot represents one experiment; each bar represents the average for each condition.
Encouraged by the more efficient 3-factor reprogramming with VPA treatment, we explored the possibility of eliminating some of the transcription factors. The modified induction method with VPA treatment (FIG. 9b) was applied to human BJ and NHDF cells infected by different 2-factor combinations, and AP^+ iPS colonies were identified about 1 month post-infection in fibroblasts infected by Oct4 and Sox2. Karyotypically normal iPS cell lines (Table 2) were established from 2-factor infected human fibroblasts. On average, between 1 and 5 iPS lines were successfully established out of every 100,000 BJ or NHDF cells infected by Oct4 and Sox2 (FIG. 9c). […] The efficiency of reprogramming by 2 factors, however, was ˜100 fold lower than that by 3 factors both with VPA treatment. […]

[7] = uninfected MEFs, 2 mM VPA for a week

Question: Which results are given for `CCCC(CCC)C(=O)O` [VPA, valproic acid]?
Answer: average number of GFP positive colonies ([1]; 8 days post-infection, out of 270,000 cells seeded, no colonies without chemical treatment): 241 colonies; difference in colony number, treated versus non-treated ([1]; two weeks post-infection): more than 40 fold; expression of ES cell-specific genes Rex3 and Zfp7 (uninfected MEFs [2]; MEFs treated with VPA versus untreated MEFs): up-regulated by more than twenty fold; expression of MEF-specific genes Aspn and Meox2 (uninfected MEFs [2]; VPA treated MEFs versus untreated MEFs): down-regulated by more than twenty fold; effect on endogenous c-Myc gene expression (uninfected MEFs [2]; [7]): did not have a significant effect; share of the 214 genes down-regulated >10 fold in ES cells that are down-regulated by more than two fold (uninfected MEFs [2]; [7]): 55%; share of the 214 genes down-regulated >10 fold in ES cells that are up-regulated by more than two fold (uninfected MEFs [2]; [7]): 6.2%; share of the 968 genes up-regulated >ten fold in ES cells that are down-regulated by more than two fold (uninfected MEFs [2]; [7]): 4.5%; share of the 968 genes up-regulated >ten fold in ES cells that are up-regulated by more than two fold (uninfected MEFs [2]; [7]): 66%; effect on cell cycles [3]: does not accelerate cell cycles; EC50 [4]: 1900 µM; induction of Oct4-GFP positive cells (uninfected MEFs [5]): does not induce Oct4-GFP positive cells; efficiency of reprogramming by 2 factors lower than by 3 factors [6]: ~100 fold
